Assay results as given in patent publication US9540328B2, “(−)-(2R,3S)-2-amino-3-hydroxy-3-pyridin-4-yl-1-pyrrolidin-1-yl-propan-1-one (L)-(+) tartrate salt, its method of production and use” (Allergan, Inc., priority 2013, dated 2017).
Structures can show the parent of a compound that is named as a salt. Values belong to the molecule of their own block, whether it stands above or below them.

Tests used:
Type in all cases: physicochemical
[1] = Salt form optimization study: hygroscopicity / deliquescence of salts
Excerpt: In another salt from optimization study for the dibasic drug molecule (+/−)-erythro-2-amino-3-hydroxy-3-pyridin-4-yl-1-pyrrolidin-1-yl-propan-1-one, the dihydrochloride was the first salt prepared and characterized. […] The following counterions were used: sulfuric acid, 1-hydroxy-2-naphthoic acid, methanesulfonic acid, naphthalene-2-sulfonic acid, benzenesulfonic acid, (L-) glutamic acid, malonic acid, citric acid, (−)-L-malic acid, lactic acid, ascorbic acid, and acetic acid. Of these the pursuance of mono-acetate, the naphthalene-2-sulfonate and the 1-hydroxy-2-naphthoate salts were recommended. […] The latter salt also represented a large counterion compared to the base and, especially at high doses, this was perceived as a definite disadvantage.

[2] = Dynamic Vapor Sorption (DVS)
[3] = Differential Scanning Calorimetry (DSC) degradation
[4] = TG-FTIR thermal decomposition
[5] = sample of FIG. 11 (crystalline salt)

- relative humidity at which the salt deliquesced [1]: 51 % RH
SMILES: N[C@@H](C(=O)N1CCCC1)[C@@H](O)c1ccncc1 (racemic) [acetate salt, (+/−)-erythro-2-amino-3-hydroxy-3-pyridin-4-yl-1-pyrrolidin-1-yl-propan-1-one]

- hygroscopicity [1]: hygroscopic
SMILES: N[C@@H](C(=O)N1CCCC1)[C@@H](O)c1ccncc1 (racemic) [dihydrochloride, (+/−)-erythro-2-amino-3-hydroxy-3-pyridin-4-yl-1-pyrrolidin-1-yl-propan-1-one]

- hygroscopicity ([2]; amorphous sample, FIG. 17): very hygroscopic
- deliquescence ([2]; amorphous sample, FIG. 17, visually confirmed): deliquescent
- hygroscopicity [2, 5]: very hygroscopic
- relative humidity above which water uptake occurs [2, 5]: above 80 % r.h.
- deliquescence ([2]; sample of FIG. 11 (crystalline salt), visually confirmed): deliquescent
- overlapping melting and degradation temperature ([3]; DSC first scan, sample of FIG. 10 (crystalline salt)): ~160 °C
- degradation temperature ([3]; DSC, amorphous sample, FIG. 16): above 118 °C
- degradation temperature ([4]; amorphous sample, FIG. 15): above 160 °C
- decomposition temperature ([4]; sample of FIG. 9 (crystalline salt)): above 160 °C
SMILES: N[C@@H](C(=O)N1CCCC1)[C@@H](O)c1ccncc1.O=C(O)C(O)C(O)C(=O)O [(−)-(2R,3S)-2-amino-3-hydroxy-3-pyridin-4-yl-1-pyrrolidin-1-yl-propan-1-one (L)-(+) tartrate]
